According to the NIST ThermoML archive (doi:10.1016/j.jct.2018.07.006):
“And” between values parts separate entries of the source, which are not always exact repeats. Equal entries are not always repeated. ± gives the expanded uncertainty stated by the source.

Experiment: mn = molality of the nth substance listed, in mol/kg
Conditions: 100 kPa, Liquid; for speed of sound: Frequency=3 MHz, Single path-length method; for mass density: Vibrating tube method

Question: What does the source list for `CC(C)(CO)[C@@H](O)C(=O)NCCCO` [d-Panthenol] + O?
Answer: speed of sound (293.15 K, m1 = 0.05): 1489.4 ± 2 m/s; speed of sound (293.15 K, m1 = 0.1): 1494.1 ± 2 m/s; speed of sound (293.15 K, m1 = 0.15): 1498.5 ± 2 m/s; mass density (293.15 K, m1 = 0.05): 999.509 ± 0.3 kg/m3; mass density (293.15 K, m1 = 0.1): 1001.62 ± 0.32 kg/m3; mass density (293.15 K, m1 = 0.15): 1003.34 ± 0.32 kg/m3; speed of sound (298.15 K, m1 = 0.05): 1503 ± 2 m/s; speed of sound (298.15 K, m1 = 0.1): 1507.6 ± 2 m/s; speed of sound (298.15 K, m1 = 0.15): 1511.6 ± 2 m/s; mass density (298.15 K, m1 = 0.05): 998.191 ± 0.3 kg/m3; mass density (298.15 K, m1 = 0.1): 1000.22 ± 0.31 kg/m3; mass density (298.15 K, m1 = 0.15): 1002.12 ± 0.32 kg/m3 and 1002.09 ± 0.32 kg/m3; speed of sound (303.15 K, m1 = 0.05): 1515.5 ± 2 m/s and 1516 ± 2 m/s; speed of sound (303.15 K, m1 = 0.1): 1519.5 ± 2 m/s and 1517.9 ± 2 m/s; speed of sound (303.15 K, m1 = 0.15): 1522.9 ± 2 m/s; mass density (303.15 K, m1 = 0.05): 996.926 ± 0.3 kg/m3; mass density (303.15 K, m1 = 0.1): 998.987 ± 0.31 kg/m3; mass density (303.15 K, m1 = 0.15): 1000.58 ± 0.32 kg/m3; speed of sound (308.15 K, m1 = 0.05): 1525.2 ± 2 m/s; speed of sound (308.15 K, m1 = 0.1): 1529.1 ± 2.2 m/s; speed of sound (308.15 K, m1 = 0.15): 1532.5 ± 2 m/s; mass density (308.15 K, m1 = 0.05): 995.295 ± 0.3 kg/m3; mass density (308.15 K, m1 = 0.1): 997.338 ± 0.31 kg/m3; mass density (308.15 K, m1 = 0.15): 998.985 ± 0.32 kg/m3
